Results as given in publication PMC10033419, “Blocking NS3–NS4B interaction inhibits dengue virus in non-human primates” (Nature, 2023).
Where “and” joins values, the source holds several entries; their conditions need not be identical. Equal values may be shown once. Read-outs that look alike come from different tables or passages of the source.

Legend:
MTS/PMS toxicity assay = type: cell-based, African green monkey; conditions: African green monkey, Vero cells
Description: (§1) A potential toxic effect on host cells was tested in parallel, while omitting virus infection, using the MTS/PMS method (Promega) for Vero cells, or by high-content imaging for C6/36 cells, as described previously. […] RT–qPCR data were analysed using the QuantStudio 12K Flex software (v.1.2.3) or SDS v.1.2 Applied Biosystems software. Inhibition values for antiviral molecules were plotted using KaleidaGraph plotting software (v.4.03, Synergy Software).

Vero cells = assay: MTS/PMS toxicity assay; type: cell-based, African green monkey; conditions: EXP1-EXP3, read-out: CC50, single experiments
Description: as §1

JEV CNS769-Laos 2009 = assay: microbe, parasite or virus in culture; type: cell-based; conditions: Japanese encephalitis virus, Vero C1008
DENV-2 RL strain = assay: Day 3 viraemia model, high viral inoculum (10^6 PFU); type: in vivo, AG129 mice; conditions: for Av Log 10 (average): group average; for Av Log 10 (Ave/Med: median): group median; for Copy number / Log 10 (copy number): individual animals, listed as 64281802-AAA
[1] = Study 1+2+3 compiled data, 0,2 mg/kg/d
[2] = Study 1+2+3 compiled data, 0,6 mg/kg/d
[3] = Study 1+2+3 compiled data, 2 mg/kg/d
[4] = Study 1+2+3 compiled data, 2 mg/kg/d, 2 mg/kg/day
[5] = Study 1+2+3 compiled data, 6 mg/kg/d
[6] = Study 1+2+3 compiled data, 6 mg/kg/d, 6 mg/kg/day
[7] = Study 1+2+3 compiled data, 20 mg/kg/d
[8] = Study 1+2+3 compiled data, 20 mg/kg/d, 20 mg/kg/day
[9] = Study 1+2+3 compiled data, 60 mg/kg/d
[10] = Study 1+2+3 compiled data, 60 mg/kg/d, 60 mg/kg/day

SMILES: COc1cc(N[C@H](C(=O)c2c[nH]c3ccc(OC(F)(F)F)cc23)c2ccc(Cl)cc2OC)cc(S(C)(=O)=O)c1 [JNJ-1802]
- CC50 (MTS/PMS toxicity assay; EXP1-EXP3, read-out: CC50, single experiments): 2.77 µM
- CC50 (MTS/PMS toxicity assay; Vero, read-out: CC50): > 2.26 µM
- CC50 (MTS/PMS toxicity assay; mean, read-out: CC50 MEAN): > 2.3 µM
- CC50 (MTS/PMS toxicity assay; median, read-out: CC50 MEDIAN): > 2 µM
- CC50 (Vero cells): > 2 µM
- EC50 (JEV CNS769-Laos 2009): 0.59 µM
- viraemia day 3 p.i., average Log 10 (DENV-2 RL strain; 0,3 mg/kg/d q.d.): 6.63 log10 viral RNA copies/mL
- viraemia day 3 p.i., median Log 10 (DENV-2 RL strain; 0,3 mg/kg/d q.d.): 6.66 log10 viral RNA copies/mL
- viraemia day 3 p.i., average Log 10 (DENV-2 RL strain; 3 mg/kg/d q.d.): 3.84 log10 viral RNA copies/mL
- viraemia day 3 p.i., median Log 10 (DENV-2 RL strain; 3 mg/kg/d q.d.): 4.27 log10 viral RNA copies/mL
- mice with undetectable viral RNA (DENV-2 RL strain; 20 mg per kg per day b.i.d.): 13 out of 14
- mice with undetectable viral RNA (DENV-2 RL strain; 30 mg per kg q.d.): five out of eight
- viraemia day 3 p.i., average Log 10 (DENV-2 RL strain; 30 mg/kg/d q.d.): 3.09 log10 viral RNA copies/mL
- viraemia day 3 p.i., median Log 10 (DENV-2 RL strain; 30 mg/kg/d q.d.): 2.59 log10 viral RNA copies/mL
- mice with undetectable viral RNA (DENV-2 RL strain; 60 mg per kg per day b.i.d.): four out of seven
- Av Log 10 (average) (DENV-2 RL strain; [1]): 5.92
- Av Log 10 (Ave/Med: median) (DENV-2 RL strain; [1]): 6.05
- Copy number (DENV-2 RL strain; [1]): 1.86E+06 and 1.20E+06 and 1.13E+06 and 8.80E+05 and 2.24E+05 and 2.37E+06 and 1.58E+06 and 7.37E+04 and 5.97E+06 and 8.67E+05 and 1.42E+06 and 1.06E+06 and 9.43E+04
- Log 10 (copy number) (DENV-2 RL strain; [1]): 6.27 and 6.08 and 6.05 and 5.94 and 5.35 and 6.38 and 6.20 and 4.87 and 6.78 and 6.15 and 6.03 and 4.97
- Av Log 10 (average) (DENV-2 RL strain; [2]): 4.22
- Av Log 10 (Ave/Med: median) (DENV-2 RL strain; [2]): 4.52
- Copy number (DENV-2 RL strain; [2]): 3.93E+02
- Log 10 (copy number) (DENV-2 RL strain; [2]): 2.59
- Av Log 10 (average) (DENV-2 RL strain; [3]): 4.68
- Av Log 10 (Ave/Med: median) (DENV-2 RL strain; [3]): 4.60
- Copy number (DENV-2 RL strain; [4]): 8.93E+05 and 4.00E+05 and 3.96E+05 and 1.24E+06 and 6.51E+05 and 1.32E+04 and 2.02E+05 and 2.06E+04
- Log 10 (copy number) (DENV-2 RL strain; [4]): 5.95 and 5.60 and 6.09 and 5.81 and 3.95
- Av Log 10 (average) (DENV-2 RL strain; [5]): 4.33
- Av Log 10 (Ave/Med: median) (DENV-2 RL strain; [5]): 4.37
- Copy number (DENV-2 RL strain; [6]): 5.85E+04 and 1.40E+05 and 1.03E+05 and 2.15E+04 and 1.94E+05 and 8.27E+04 and 1.06E+04 and 2.60E+04 and 9.12E+03 and 5.17E+03 and 3.62E+04 and 5.97E+03 and 3.93E+02
- Log 10 (copy number) (DENV-2 RL strain; [6]): 4.77 and 5.15 and 5.01 and 4.33 and 5.29 and 4.92 and 4.03 and 4.41 and 3.96 and 3.71 and 4.56 and 4.11 and 3.78 and 2.59
- Av Log 10 (average) (DENV-2 RL strain; [7]): 2.70
- Av Log 10 (Ave/Med: median) (DENV-2 RL strain; [7]): 2.59
- Copy number (DENV-2 RL strain; [8]): 1.05E+04 and 3.93E+02
- Log 10 (copy number) (DENV-2 RL strain; [8]): 4.02 and 2.59
- Av Log 10 (average) (DENV-2 RL strain; [9]): 3.05
- Av Log 10 (Ave/Med: median) (DENV-2 RL strain; [9]): 2.59
- Copy number (DENV-2 RL strain; [10]): 3.93E+02 and 1.22E+04 and 1.55E+03 and 5.28E+03
- Log 10 (copy number) (DENV-2 RL strain; [10]): 2.59 and 4.09 and 3.19 and 3.72
- Av Log 10 (average) (DENV-2 RL strain; Study 1 - 160222, 2 mg/kg/d): 5.30
- Av Log 10 (Ave/Med: median) (DENV-2 RL strain; Study 1 - 160222, 2 mg/kg/d): 5.60
- Copy number (DENV-2 RL strain; Study 1 - 160222, 2 mg/kg/d): 8.93E+05 and 4.00E+05 and 3.96E+05 and 1.24E+06 and 6.51E+05 and 1.32E+04 and 2.02E+05
- Log 10 (copy number) (DENV-2 RL strain; Study 1 - 160222, 2 mg/kg/d): 5.95 and 5.60 and 6.09 and 5.81 and 3.95 and 4.12 and 5.30
